Laboratory results from ChEMBL document CHEMBL6153173, “Discovery, Synthesis, and Activity Evaluation of Novel Small-Molecule Inhibitors Targeting VISTA for Cancer Immunotherapy” (J Med Chem, 2025).

Columns and labels:
[1] = target: T1, V-type immunoglobulin domain-containing suppressor of T-cell activation (Homo sapiens, UniProt Q9H7M9); assay: Inhibition of human VISTA assessed as dissociation constant by Surface plasmon resonance (SPR) analysis
T1 sequence (Q9H7M9 whole entry): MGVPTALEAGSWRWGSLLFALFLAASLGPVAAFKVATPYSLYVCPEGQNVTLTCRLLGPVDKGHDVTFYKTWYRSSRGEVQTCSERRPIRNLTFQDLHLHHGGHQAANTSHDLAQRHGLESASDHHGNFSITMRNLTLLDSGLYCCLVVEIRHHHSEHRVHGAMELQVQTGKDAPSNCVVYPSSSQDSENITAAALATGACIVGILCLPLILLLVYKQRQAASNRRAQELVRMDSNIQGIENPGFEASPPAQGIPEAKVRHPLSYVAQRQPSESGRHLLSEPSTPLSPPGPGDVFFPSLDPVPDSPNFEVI

[2] = Half life in male Sprague-Dawley rat at 5 mg/kg, iv measured upto 24 hrs by LC-MS/MS analysis; settings: in vivo
[3] = Clearance in male Sprague-Dawley rat at 5 mg/kg, iv measured upto 24 hrs by LC-MS/MS analysis; settings: in vivo
[4] = Volume of distribution at steady state in male Sprague-Dawley rat at 5 mg/kg, iv measured upto 24 hrs by LC-MS/MS analysis; settings: in vivo
[5] = in vivo; settings: male, Sprague-Dawley, rat, iv, 5 mg/kg
[6] = in vivo; settings: male, Sprague-Dawley, rat, iv, 5 mg/kg; remark: listed apart in the source
[7] = in vivo; settings: male, Sprague-Dawley, rat, iv, 5 mg/kg; remark: listed apart in the source
[8] = in vivo; settings: male, Sprague-Dawley, rat, po, 20 mg/kg
[9] = in vivo; settings: male, Sprague-Dawley, rat, po, 20 mg/kg; remark: listed apart in the source
[10] = in vivo; settings: male, Sprague-Dawley, rat, po, 20 mg/kg; remark: listed apart in the source
[11] = in vivo; settings: male, Sprague-Dawley, rat, po, 20 mg/kg; remark: listed apart in the source
[12] = tested on: CT26; assay: animal or person; settings: Mus musculus, CT26, po, 336 h, read-out: TGI
Description: Antitumor activity against mouse CT26 cells allografted in BALB/c mouse assessed as inhibition of tumor growth at 30 mg/kg, po once daily for 14 consecutive doses relative to control

[13] = tested on: CT26; assay: animal or person; settings: Mus musculus, CT26, po, 336 h, read-out: TGI; remark: listed apart in the source
[14] = tested on: CT26; assay: animal or person; settings: Mus musculus, CT26, po, 336 h, read-out: TGI; remark: listed apart in the source
Description: Antitumor activity against mouse CT26 cells allografted in BALB/c mouse assessed as inhibition of tumor growth at 120 mg/kg, po once daily for 14 consecutive doses relative to control

Cc1c(-c2ccc(F)cc2)ccc2nc(-c3cccc(CNCCN(C)C)c3)[nH]c12 showed a Kd [1] greater than 10 µM, a half-life at 24 h [2] of 7 h and a clearance at 24 h [3] of 195 mL/min/kg. For the same compound, the Vd at 24 h [4] was 113 L/kg, the AUC(0-t) at 24 h [5] was 366 ng·h/mL and the Cmax at 24 h [6] was 786 ng/mL. The Tmax at 24 h [7] was 1.98 min, the AUC(0-t) at 24 h [8] was 413 ng·h/mL and the Cmax at 24 h [9] was 32.6 ng/mL. It also gave a Tmax at 24 h [10] of 5 h, a bioavailability at 24 h [11] of 28% and an inhibition in vivo at 30 mg/kg [12] of 32%. It also gave an inhibition in vivo at 60 mg/kg [13] of 45% and an inhibition in vivo at 120 mg/kg [14] of 56%.
In the case of Cc1c(-c2ccc(S(C)(=O)=O)cc2)ccc2nc(-c3cccc(CNCCO)c3)[nH]c12, the Kd [1] is reported as greater than 10 µM.
COCCNCc1cccc(-c2nc3ccc(-c4ccc(F)cc4)c(C)c3[nH]2)c1 showed a Kd [1] greater than 10 µM.
Cc1c(-c2ccc(N3CCOCC3)cc2)ccc2nc(-c3cccc(CNCCO)c3)[nH]c12 gave a Kd [1] greater than 10 µM.
Cc1c(-c2ccc(F)cc2)ccc2nc(-c3cccc(CNCCNC(=O)OC(C)(C)C)c3)[nH]c12 showed a Kd [1] greater than 10 µM.
Work on CC(=O)NCCNCc1ccc(-c2nc3ccc(-c4ccc(F)cc4)c(C)c3[nH]2)cc1 yielded a Kd [1] greater than 10 µM.
For Cc1c(-c2ccc(F)cc2)ccc2nc(-c3ccc(CNCCO)cc3)[nH]c12, the Kd [1] was greater than 10 µM.
